Data from BindingDB's records for doi:10.1021/cb500018s (Johns Hopkins University, 2014).
Where a name gives a salt, the structure may show the parent alone.

target: Lysine-specific histone demethylase 1A (Homo sapiens, UniProt O60341); test: GST-LSD1 Enzymatic Assays; conditions: pH 7.5
Method: The reaction mixture contained 50 mM HEPES (pH 7.5), 0.1 mM 4-aminoantipyrine, 1 mM 3,5-dichloro-2-hydroxybenzenesulfonic acid, 0.04 mg/mL horseradish peroxidase, and appropriate concentration of buffered substrate (dimethyl-Lys-4- H3-21, ARTKme2[sequence]).

Compound	Ki [nM]
CS(=O)(=O)Oc1ccccc1CCC(=O)Nc1ccc(CCNN)cc1 [2-(3-{[4-(2-Hydrazinylethyl)phenyl]amino}-3-oxopropyl)phenyl methanesulfonate oxalate salt (12j)]	204
CS(=O)(=O)Oc1cccc(CCC(=O)Nc2ccc(CCNN)cc2)c1 [3-(3-{[4-(2-Hydrazinylethyl)phenyl]amino}-3-oxopropyl)phenyl methanesulfonate oxalate salt (12k)]	223
NNCCc1ccc(NC(=O)CCCc2ccc(Cl)cc2)cc1 [4-(4-Chlorophenyl)-N-[4-(2-hydrazinylethyl)phenyl]butanamide sulfate salt (12f)]	156
NNCCOc1ccccc1 [(2-Phenoxyethyl)hydrazine dihydrochloride salt (10a)]	44000
NNCCc1ccc(NC(=O)/C=C/c2ccccc2)cc1 [(2E)-N-[4-(2-Hydrazinylethyl)phenyl]-3-phenylprop-2-enamide sulfate salt (13)]	100
NNCCCOc1ccccc1 [(3-Phenoxypropyl)hydrazine dihydrochloride salt (10b)]	12000
NNCCCc1ccccc1 [(3-Phenylpropyl)hydrazine dihydrochloride salt (9c)]	5000
NNCCCCc1ccccc1 [(4-Phenylbutyl)hydrazine dihydrochloride salt (9h)]	22000
NNCCc1ccc(N(Cc2ccccc2)C(=O)CCCc2ccccc2)cc1 [N-Benzyl-N-[4-(2-hydrazinylethyl)phenyl]-4-phenylbutanamide oxalate salt (12m)]	1600
NNCCc1ccc(NC(=O)Cc2ccccc2)cc1 [N-[4-(2-Hydrazinylethyl)phenyl]-2-phenylacetamide dihydrochloride salt (12b)]	370
NNCCc1ccc(NC(=O)CCc2c[nH]c3ccccc23)cc1 [N-[4-(2-Hydrazinylethyl)phenyl]-3-(1H-indol-3-yl)propanamide sulfate salt (15a)]	210
NNCCc1ccc(NC(=O)CCc2ccccc2)cc1 [N-[4-(2-Hydrazinylethyl)phenyl]-3-phenylpropanamide sulfate salt (12c)]	260
COc1ccc(CCCC(=O)Nc2ccc(CCNN)cc2)cc1 [N-[4-(2-Hydrazinylethyl)phenyl]-4-(4-methoxyphenyl)butanamide sulfate salt (12h)]	207
NNCCc1ccc(NC(=O)CCCc2ccc([N+](=O)[O-])cc2)cc1 [N-[4-(2-Hydrazinylethyl)phenyl]-4-(4-nitrophenyl)butanamide sulfate salt (12i)]	282
NNCCc1ccc(NC(=O)CCCCc2ccccc2)cc1 [N-[4-(2-Hydrazinylethyl)phenyl]-5-phenylpentanamide oxalate salt (12e)]	260
CN(C(=O)CCCc1ccccc1)c1ccc(CCNN)cc1 [N-[4-(2-Hydrazinylethyl)phenyl]-N-methyl-4-phenylbutanamide oxalate salt (12l)]	2000
NNCCc1ccc(NC(=O)c2ccccc2)cc1 [N-[4-(2-Hydrazinylethyl)phenyl]benzamide dihydrochloride salt (12a)]	280
COc1ccc(CCCNN)cc1 [[3-(4-Methoxyphenyl)propyl]hydrazine dihydrochloride salt (9e)]	8000
NNCCCc1ccc(OCc2ccccc2)cc1 [{3-[4-(Benxyloxy)phenyl]propyl}hydrazine dihydrochloride salt (14)]	900

target: T1, Amine oxidase [flavin-containing] A (Homo sapiens, UniProt P21397); test: MAO-A/B Activity and Inhibition Assay; conditions: pH 7.5
T1 sequence (P21397 whole entry): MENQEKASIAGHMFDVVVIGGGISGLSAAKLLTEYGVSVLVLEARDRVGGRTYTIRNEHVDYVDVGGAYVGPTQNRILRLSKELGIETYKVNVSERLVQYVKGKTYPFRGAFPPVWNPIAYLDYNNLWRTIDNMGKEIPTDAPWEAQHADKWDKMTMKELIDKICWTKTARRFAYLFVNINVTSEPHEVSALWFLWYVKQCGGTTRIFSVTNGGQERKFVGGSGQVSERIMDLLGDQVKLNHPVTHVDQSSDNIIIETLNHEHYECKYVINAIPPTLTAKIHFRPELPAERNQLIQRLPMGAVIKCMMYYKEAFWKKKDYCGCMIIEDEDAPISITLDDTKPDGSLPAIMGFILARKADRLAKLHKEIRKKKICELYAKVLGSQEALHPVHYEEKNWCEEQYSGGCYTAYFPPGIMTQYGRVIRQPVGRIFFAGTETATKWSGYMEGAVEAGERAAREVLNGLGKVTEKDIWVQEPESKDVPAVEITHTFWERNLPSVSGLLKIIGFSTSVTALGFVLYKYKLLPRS
Method: (§1) The reaction mixtures contained 50 mM HEPES (pH 7.5), 0.1 mM 4-aminoantipyrine, 1 mM 3,5-dichloro-2-hydroxybenzenesulfonic acid, 0.04 mg/mL horseradish peroxidase, and appropriate concentration of buffered substrate (tyramine).

Compound	Ki [nM]
NNCCc1ccc(NC(=O)CCCc2ccccc2)cc1 [N-[4-(2-Hydrazinylethyl)phenyl]-4-phenylbutanamide dihydrochloride salt (12d)]	2600

target: T2, Amine oxidase [flavin-containing] B (Homo sapiens, UniProt P27338); test: MAO-A/B Activity and Inhibition Assay; conditions: pH 7.5
T2 sequence (P27338 whole entry): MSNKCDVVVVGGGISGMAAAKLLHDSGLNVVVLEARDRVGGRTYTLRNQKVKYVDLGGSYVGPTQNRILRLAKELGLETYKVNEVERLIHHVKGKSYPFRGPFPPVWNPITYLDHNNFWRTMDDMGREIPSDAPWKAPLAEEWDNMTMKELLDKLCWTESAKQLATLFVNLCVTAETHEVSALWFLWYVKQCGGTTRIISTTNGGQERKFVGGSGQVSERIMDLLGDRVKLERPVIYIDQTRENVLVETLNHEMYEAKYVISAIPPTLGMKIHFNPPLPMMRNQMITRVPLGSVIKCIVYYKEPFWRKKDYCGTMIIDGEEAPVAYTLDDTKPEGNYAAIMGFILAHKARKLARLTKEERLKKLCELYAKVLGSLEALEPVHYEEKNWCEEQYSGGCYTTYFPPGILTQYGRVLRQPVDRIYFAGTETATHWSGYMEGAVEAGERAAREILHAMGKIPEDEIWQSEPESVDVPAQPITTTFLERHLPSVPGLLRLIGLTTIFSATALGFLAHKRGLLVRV
Method: as §1

Compound	Ki [nM]
NNCCc1ccc(NC(=O)CCCc2ccccc2)cc1 [N-[4-(2-Hydrazinylethyl)phenyl]-4-phenylbutanamide dihydrochloride salt (12d)]	6500
